Assay: Measurement of Log P values by HPLC on reversed phase columns (EEC directive 79/831 Annex V.A8)
Format: physicochemical
Conditions: LogP
Method: Measurement of Log P values as provided herein was performed according to EEC directive 79/831 Annex V.A8 by HPLC (High Performance Liquid Chromatography) on reversed phase columns with the following methods: • ^[a] Log P value is determined by measurement of LC-UV, in an acidic range, with 0.1% formic acid in water and acetonitrile as eluent (linear gradient from 10% acetonitrile to 95% acetonitrile). • ^[b] Log P value is determined by measurement of LC-UV, in a neutral range, with 0.001 molar ammonium acetate solution in water and acetonitrile as eluent (linear gradient from 10% acetonitrile to 95% acetonitrile). • ^[c] Log P value is determined by measurement of LC-UV, in an acidic range, with 0.1% phosphoric acid and acetonitrile as eluent (linear gradient from 10% acetonitrile to 95% acetonitrile).
If more than one Log P value is available within the same method, all the values are given and separated by “+”.
Calibration was done with straight-chain alkan2-ones (with 3 to 16 carbon atoms) with known Log P values (measurement of Log P values using retention times with linear interpolation between successive alkanones). Lambda-max-values were determined using UV-spectra from 200 nm to 400 nm and the peak values of the chromatographic signals

chromatographic logP | Compound
4.08 | CSc1ncc(Br)c(C2=NOC[C@@H](Cc3ccc(C)cc3Cl)N2)n1 (racemic) [Compound 7-03]
4.05 | CSc1ncc(Br)c(C2=NOC[C@@H](Cc3ccc(C)cc3C)N2)n1 (racemic) [Compound 7-02]
2.49 | O=C(O)c1nc(C2CC2)ncc1Oc1cccc(C(F)(F)F)c1 [Compound 1-02, 2-cyclopropyl-5-[3-(trifluoromethyl)phenoxy]pyrimidine-4-carboxylic acid]
4.93 | Cc1ccc(C[C@H](CCl)NC(=O)c2nc(C)ncc2Oc2cccc(C3CC3)c2F)c(Cl)c1 (racemic) [Compound 10-03]
5.4 | Cc1ccc(CC(CON2C(=O)c3ccccc3C2=O)NC(=O)c2nc(C3CC3)ncc2Oc2cccc(C(F)(F)F)c2)c(C)c1 (racemic) [Compound 3-01, 2-cyclopropyl-N-{(2RS)-1-(2,4-dimethylphenyl)-3-[(1,3-dioxo-1,3-dihydro-2H-isoindol-2-yl)oxy]propan-2-yl}-5-[3-(trifluoromethyl)phenoxy]pyrimidine-4-carboxamide]
1.77 | C#Cc1cccc(Oc2cnc(C)nc2C(=O)O)c1 [Compound 1-05]
4.15 | Cc1ncc(Oc2cccc(Cl)c2)c(C(N)=NOCC(=O)c2ccc3c(c2)CCC3)n1 [Compound 19-01]
3.12 | Cc1ncc(Oc2cccc(Cl)c2)c(C(N)=NOCC(=O)c2ccc3c(c2)OCCO3)n1 [Compound 19-02]
4.55 | Cc1ncc(Oc2cccc(C(F)(F)F)c2)c(C(=O)N[C@@H](CCl)Cc2csc(C(F)(F)F)c2)n1 (racemic) [Compound 10-07]
3.41 | Cc1ncc(Oc2cccc(Cl)c2)c(C(N)=NOC(C)(C)C(=O)c2ccc(F)cc2F)n1 [Compound 19-03]
4.66 | Cc1ncc(Oc2cccc(C(F)(F)F)c2)c(C(=NO)N[C@@H](CCl)Cc2ccc(SC(F)(F)F)cc2)n1 (racemic) [Compound 11-10]
4.47 | COc1ccc(C[C@H](CCl)NC(=O)c2nc(C)ncc2Oc2cccc(C(F)(F)F)c2)c(Cl)c1 (racemic) [Compound 10-01]
4.86 | Cc1ncc(Oc2cccc(C(F)(F)F)c2)c(C(=O)N[C@@H](CCl)Cc2ccc(Br)cc2C)n1 (racemic) [Compound 10-06]
2.59 | Cc1ccc(CC2CCN=C(c3nc(C)ncc3Oc3cccc(Cl)c3)N2)c(C)c1 (racemic) [Compound I-022, 5-(3-chlorophenoxy)-2-methyl-4-[(6RS)-6-[(2,4-dimethylphenyl)methyl]-1,4,5,6-tetrahydropyrimidin-2-yl]pyrimidine]
0.69 | Cc1ccc(C[C@H](N)CC(N)=O)c(C)c1 (racemic) [Compound 9-04]
4.74 | Cc1ccc(C[C@H](CCl)NC(=O)c2nc(C)ncc2Oc2cccc(C(F)(F)F)c2)c(Cl)c1 (racemic) [Compound 10-02]
3.07 | Cc1ncc(Oc2cccc(Cl)c2)c(C#N)n1 [Compound 16-01]
3.4 | Cc1ncc(Oc2cccc(Cl)c2)c(C(N)=NO[C@H](F)C(=O)c2ccc(Cl)cc2)n1 (racemic) [Compound 19-04]
1.66 | Cc1ncc(Oc2cccc(Cl)c2)c(C(N)=NO)n1 [Compound 17-01, 5-(3-chlorophenoxy)-N′-hydroxy-2-methyl-pyrimidine-4-carboxamidine]
2.15 | Cc1ncc(Oc2cccc(Br)c2)c(C(=O)O)n1 [Compound 1-04]
4.16 | Cc1ccc(C[C@H](CCl)NC(=NO)c2nc(C)ncc2Oc2cccc(Cl)c2F)c(Cl)c1 (racemic) [Compound 11-06]
3.26 | Cc1ccc(CC(CCl)NC(=NO)c2nc(C)ncc2Br)c(C)c1 (racemic) [Compound 13-01, 5-bromo-N-[(2RS)-1-chloro-3-(2,4-dimethylphenyl)propan-2-yl]-N′-hydroxy-2-methylpyrimidine-4-carboximidamide]
2.19 | COC(=N)c1nc(C)ncc1Oc1cccc(Cl)c1 [Compound 20-01, methyl 5-(3-chlorophenoxy)-2-methyl-pyrimidine-4-carboximidate]
0.55 | Cc1ccc([C@H](N)CC(N)=O)c(C)c1 (racemic) [Compound 9-05]

chromatographic logP | Compound
4.92 | Cc1ncc(Oc2cccc(C(F)(F)F)c2)c(C(=O)N[C@@H](CCl)Cc2ccc(SC(F)(F)F)cc2)n1 (racemic) [Compound 10-09]
4.12 | Cc1ncc(Oc2cccc(C(F)(F)F)c2)c(C(=NO)N[C@@H](CCl)Cc2csc(C(F)(F)F)c2)n1 (racemic) [Compound 11-08]
4.37 | Cc1ncc(Oc2cccc(C(F)(F)F)c2)c(C(=O)N[C@@H](CCl)Cc2ccc(C(F)F)cc2Cl)n1 (racemic) [Compound 10-10]
4.62 | CSc1ncc(Br)c(C(=O)N[C@@H](CON2C(=O)c3ccccc3C2=O)Cc2ccc(C)cc2Cl)n1 (racemic) [Compound 3-03]
4.55 | CSc1ncc(Br)c(C(=O)N[C@@H](CON2C(=O)c3ccccc3C2=O)Cc2ccc(C)cc2C)n1 (racemic) [Compound 6a-01]
4.08 | Cc1ncc(Oc2cccc(C(F)(F)F)c2)c(C(=NO)N[C@@H](CCl)Cc2ccc(OC(F)F)cc2Cl)n1 (racemic) [Compound 11-09]
4.31 | Cc1ccc(C[C@H](CCl)NC(=NO)c2nc(C)ncc2Oc2cccc(C(F)(F)F)c2)c(Cl)c1 (racemic) [Compound 11-02]
1.87 | C=Cc1cccc(Oc2cnc(C)nc2C(=O)O)c1 [Compound 1-06]
2.58 | CSc1ncc(Br)c(C(=O)N[C@@H](CON)Cc2ccc(C)cc2Cl)n1 (racemic) [Compound 4-03]
3.05 | Cc1ccc(CC2CON=C(c3nc(C)ncc3Br)N2)c(C)c1 (racemic) [Compound 7-01, (5RS)-3-(5-bromo-2-methylpyrimidin-4-yl)-5-(2,4-dimethylbenzyl)-5,6-dihydro-4H-1,2,4-oxadiazine]
4.51 | Cc1ccc(C[C@H](CCl)NC(=NO)c2nc(C)ncc2Oc2cccc(C3CC3)c2F)c(C)c1 (racemic) [Compound 11-04]
3.7 | Cc1ccc(CC(CON)NC(=O)c2nc(C3CC3)ncc2Oc2cccc(C(F)(F)F)c2)c(C)c1 (racemic) [Compound 4-01, N-[(2RS)-1-(aminooxy)-3-(2,4-dimethylphenyl)propan-2-yl]-2-cyclopropyl-5-[3-(trifluoromethyl)phenoxy]pyrimidine-4-carboxamide]
4.28 | Cc1ccc(C[C@H](CCl)NC(=NO)c2nc(C)ncc2Oc2cccc(Cl)c2)c(Cl)c1 (racemic) [Compound 11-05]
4.01 | COc1ccc(C[C@H](CCl)NC(=NO)c2nc(C)ncc2Oc2cccc(C(F)(F)F)c2)c(Cl)c1 (racemic) [Compound 11-01]
4.41 | C#Cc1cccc(Oc2cnc(C)nc2C(=O)N[C@@H](CON2C(=O)c3ccccc3C2=O)Cc2ccc(C)cc2C)c1 (racemic) [Compound 3-02]
4.61 | Cc1ccc(C[C@H](CCl)NC(=O)c2nc(C)ncc2Oc2cccc(Cl)c2)c(Cl)c1 (racemic) [Compound 10-04]
2.53 | C#Cc1cccc(Oc2cnc(C)nc2C(=O)N[C@@H](CON)Cc2ccc(C)cc2C)c1 (racemic) [Compound 4-02]
4.62 | Cc1ccc(C[C@H](CCl)NC(=NO)c2nc(C)ncc2Oc2cccc(C3CC3)c2F)c(Cl)c1 (racemic) [Compound 11-03]
1.91 | Cc1ncc(Oc2cccc(Cl)c2F)c(C(=O)O)n1 [Compound 1-08]
4.51 | Cc1ncc(Oc2cccc(C(F)(F)F)c2)c(C(=O)N[C@@H](CCl)Cc2ccc(OC(F)F)cc2Cl)n1 (racemic) [Compound 10-08]
3.66 | Cc1ccc(CC(CCl)NC(=O)c2nc(C)ncc2Br)c(C)c1 (racemic) [Compound 12-01, 5-bromo-N-[(2RS)-1-chloro-3-(2,4-dimethylphenyl)propan-2-yl]-2-methyl-pyrimidine-4-carboxamide]
2.49 | CSc1ncc(Br)c(C(=O)N[C@@H](CON)Cc2ccc(C)cc2C)n1 (racemic) [Compound 6b-01]
4.02 | Cc1ncc(Oc2cccc(C(F)(F)F)c2)c(C(=NO)N[C@@H](CCl)Cc2ccc(C(F)F)cc2Cl)n1 (racemic) [Compound 11-11]

Compound | chromatographic logP
Cc1ccc(C[C@H](N)CCN)c(C)c1 (racemic) [Compound 9-06] | 0.23

Same assay, conditions: method [a]: LC-UV, acidic range, 0.1% formic acid in water and acetonitrile as eluent; read-out: LogP

Compound | chromatographic logP
N[C@H](CCl)Cc1csc(C(F)(F)F)c1 (racemic) [Compound 9-03] | 1.29
N[C@H](CCl)Cc1ccc(SC(F)(F)F)cc1 (racemic) [Compound 9-02] | 1.68
Cc1ncc(Oc2cccc(C(F)(F)F)c2)c(C2=NOCC(Cc3ccc(C#C[Si](C)(C)C)cc3C)N2)n1 (racemic) [Compound I-010, trimethyl-[2-[3-methyl-4-[[(5RS)-3-[2-methyl-5-[3-(trifluoro-methyl)phenoxy]pyrimidin-4-yl]-5,6-dihydro-4H-1,2,4-oxadiazin-5-yl]methyl]phenyl]ethynyl]silane] | 5.79

Same assay, conditions: reversed phase HPLC column, method [a]: LC-UV, acidic range, 0.1% formic acid in water and acetonitrile as eluent; read-out: LogP

chromatographic logP | Compound
1.55 | Cc1ccc(C[C@H](N)CON2C(=O)c3ccccc3C2=O)c(C)c1 (racemic) [Compound 2-01]

— patent publication US12565489B2, “Heterocyclyl pyrimidines and triazines as novel fungicides” (Bayer Aktiengesellschaft, priority 2020, dated 2026)
